Assay results taken from patent US20250011881A1, “MYC-HSF1 DUAL AMPLIFICATION AS A BIOMARKER FOR CANCER TREATMENT” (The Trustees of Indiana University, priority 2023, published 2025).
Values joined by “and” are separate entries in the source; they are usually repeats but may differ in a detail not shown here. Equal entries are not always repeated. Structures can show the parent of a compound that is named as a salt.

Test system: ovarian cancer cells with (OVCAR8, OVCAR4) or without (OVSAHO, CAOV3) MYC-HSF1 amplification
Test: Epigenetic inhibitor drug screen, cell viability (Cell Titer Blue)
Format: cell-based
Details: not given

| Compound | Non Amp - AMP (POC) 10 uM |
| --- | --- |
| O=C(O)CCNc1cc(N2CCc3ccccc3CC2)nc(-c2ccccn2)n1 [GSK J1] | 1.38 POC |
| O=C(Nc1cccc(Nc2nccc(Nc3cccc(C(F)(F)F)c3)n2)c1)C1CC1 [Aurora Kinase Inhibitor III] | −0.3226 POC |
| CC(C)(C)c1nc2c3cc[nH]c(=O)c3c3cc(F)ccc3c2[nH]1 [Pyridone 6] | −0.4008 POC |
| Ginkgolide C | −1.319 POC |
| Oxamflatin | 24.33 POC |
| CCCCCCCCCCCCCC(=O)O[C@@H]1[C@@H](C)[C@@]2(O)[C@@H](C=C(CO)C[C@]3(O)C(=O)C(C)=C[C@@H]23)[C@@H]2C(C)(C)[C@]12OC(C)=O [12-O-tetradecanoyl phorbol-13-acetate] | −2.545 POC |
| O=C(CCCCCCC(=O)NO)NO [SBHA] | 0.3146 POC |

Same assay, conditions: 10 µM

| Compound | Non Amp - AMP (POC) 10 uM |
| --- | --- |
| COc1cc2c(NC3CCN(C(C)C)CC3)nc(N3CCC(F)(F)CC3)nc2cc1OCCCN1CCCC1 [UNC 0642] | 6.253 POC |
| COc1ccc(Cn2ccc3ccc(C(=O)NO)cc32)cc1 [PCI 34051] | −4.834 POC |

Same assay, conditions: 10 uM, 48 hrs; average relative cell viability (vs 1% DMSO) of non-amplified cells (OVSAHO, CAOV3) minus that of MYC-HSF1 amplified cells (OVCAR8, OVCAR4); positive = greater response in amplified cells

| Compound | Non Amp - AMP (POC) 10 uM |
| --- | --- |
| O=C(CCCCCCNC(=O)c1cnc(N(c2ccccc2)c2ccccc2)nc1)NO [Rocilinostat (ACY-1215), Rocilinostat] | 32.23 POC |
| O=C1/C(=C/c2ccc(O)c(Br)c2)CCC/C1=C\c1ccc(O)c(Br)c1 [HAT Inhibitor II] | −25.46 POC |
| Nc1cc(F)ccc1NC(=O)c1ccc(CNC(=O)/C=C/c2cccnc2)cc1 [Chidamide] | 33.85 POC |
| COc1cc2c(cc1O)CC[C@@H]1[C@@H]2CC[C@]2(C)[C@@H](O)CC[C@@H]12 [2-Methoxyestradiol (2-MeOE2), 2-Methoxyestradiol] | 23.41 POC |
| O=C(CCCCCCC(=O)Nc1ccc([C@H]2O[C@@H](CSc3nc(-c4ccccc4)c(-c4ccccc4)o3)C[C@@H](c3ccc(CO)cc3)O2)cc1)NO [Tubacin] | −15.59 POC |
| CN(C)CCCCC(=O)Nc1ccc(NC(=S)NC(=O)c2ccc(C(C)(C)C)cc2)cc1.Cl [Tenovin-6 (hydrochloride), Tenovin-6] | −3.503 POC |
| COc1nnc2ccc(N3CCC(c4ccc(OCCN5CCN(C)C(=O)[C@H]5C)cc4)CC3)nn12 [AZD 5153] | 11.52 POC |
| O=C(O)CNC(=O)c1c(O)c2ccccc2n(Cc2ccccc2)c1=O [IOX2(Glycine)] | 10.17 POC |
| CN1CCC(=C2c3ccccc3C=Cc3ccccc32)CC1 [Cyproheptadine (hydrochloride hydrate), Cyproheptadine] | 6.958 POC |
| CCOC(=O)C1=CN(Cc2ccccc2)C=C(C(=O)OCC)C1c1ccccc1 [BML-278] | 4.191 POC |
| C[C@@H]1O[C@@H](O[C@H]2[C@H](O[C@H]3[C@H](O[C@H]4CC[C@]5(C)[C@H]6CC=C7[C@@H]8CC(C)(C)CC[C@]8(C(=O)O)CC[C@@]7(C)[C@]6(C)CC[C@H]5C4(C)C)OC[C@H](O)[C@@H]3O)O[C@H](CO)[C@@H](O)[C@@H]2O)[C@H](O)[C@H](O)[C@H]1O [Raddeanin A] | 2.609 POC |
| O=C(/C=C/c1ccc(O)c2c1[C@H](C(=O)O[C@H](Cc1ccc(O)c(O)c1)C(=O)O)[C@@H](c1ccc(O)c(O)c1)O2)O[C@H](Cc1ccc(O)c(O)c1)C(=O)O [Salvianolic acid B] | 2.345 POC |
| CCN(CC)Cc1cc(Nc2ccnc3cc(Cl)ccc23)ccc1O [Amodiaquine dihydrochloride dihydrate] | −0.1196 POC |
| COc1cccc2c1C(=O)c1c(O)c3c(c(O)c1C2=O)C[C@@](O)(C(=O)CO)C[C@@H]3O[C@H]1C[C@H](N)[C@H](O[C@@H]2CCCCO2)[C@H](C)O1 [Pirarubicin] | 6.408 POC |
| Cc1cc(Nc2cc(N3CCN(C)CC3)nc(/C=C/c3ccccc3)n2)n[nH]1 [ENMD-2076] | −22.8 POC |
| Cc1cnc(Nc2ccc(OCCN3CCCC3)cc2)nc1Nc1cccc(S(=O)(=O)NC(C)(C)C)c1 [TG101348 (SAR302503)] | −1.346 POC |
| COc1cc2c(NC3CCN(C4CCCCC4)CC3)nc(N3CCCN(C(C)C)CC3)nc2cc1OCCCN1CCCCC1 [UNC 0646] | 45.25 POC |

| Compound | Non Amp - AMP (POC) 10 uM |
| --- | --- |
| O=C(CBr)c1ccc(O)cc1 [PTP Inhibitor I] | −3.586 POC |
| CC(C)(CNC(=O)c1cccc(-c2noc(C(F)(F)F)n2)c1)c1coc(-c2ccccc2)n1 [TMP-195] | 0.5425 POC |
| O=C(Nn1nnc2ccccc21)c1ccc(Cl)cc1Cl [ITSA-1 (ITSA1)] | 7.283 POC |
| N#Cc1c(-c2ccccc2)cc(-c2cc(Br)ccc2O)[nH]c1=O [TCS PIM-1 1] | 0.7424 POC |
| Cc1ccc(NC(=O)CCCCCC(=O)Nc2ccccc2N)cc1 [TC-H 106] | 8.223 POC |
| CCCCCCCCCC(=O)N[C@@H](Cc1c[nH]c2ccccc12)C(=O)N[C@H](CC(N)=O)C(=O)N[C@@H](CC(=O)O)C(=O)N[C@@H]1C(=O)NCC(=O)N[C@@H](CCCN)C(=O)N[C@@H](CC(=O)O)C(=O)N[C@H](C)C(=O)N[C@@H](CC(=O)O)C(=O)NCC(=O)N[C@H](CO)C(=O)N[C@@H]([C@H](C)CC(=O)O)C(=O)N[C@@H](CC(=O)c2ccccc2N)C(=O)O[C@@H]1C [Daptomycin] | 3.207 POC |
| BrC1C(Br)C(Br)C(Br)C(Br)C1Br (stereo not drawn) [1,2,3,4,5,6-Hexabromocyclohexane] | −13.98 POC |
| CN1C/C=C/CCOc2cccc(c2)-c2ccnc(n2)Nc2cccc(c2)C1 [SB1317] | 5.059 POC |
| [H]/N=C(/N)N/C(=N/[H])NCCc1ccccc1 [Phenformin HCl] | 7.32 POC |
| Oc1nc(-c2ccc(C(F)(F)F)cc2)nc2c1CSCC2 [XAV-939] | −6.034 POC |
| Nc1ccn([C@@H]2O[C@H](CO)[C@@H](O)[C@@H]2O)c(=O)n1 [Cytarabine] | 1.9 POC |
| O=C(NCC1(c2nc(-c3ccccc3)cs2)CCOCC1)c1cccc(-c2noc(C(F)(F)F)n2)c1 [TMP269] | 16.29 POC |
| CS(=O)(=O)O.Cn1cc(C2=C(c3cn(CCCSC(=N)N)c4ccccc34)C(=O)NC2=O)c2ccccc21 [Ro 31-8220 Mesylate] | 3.048 POC |
| CN1CCc2c(c3ccccc3n2Cc2ccc(C(=O)NO)cc2)C1.Cl [Tubastatin A HCl] | 19.35 POC |
| CN[C@@H]1C[C@H]2O[C@@](C)([C@@H]1OC)n1c3ccccc3c3c4c(c5c6ccccc6n2c5c31)C(=O)NC4 [Staurosporine] | 7.23 POC |
| CNCCN1CCC(OCc2ccccc2)CC1.Cl.Cl [MS049 (hydrochloride)] | −3.654 POC |

Same assay, conditions: 10 uM, 48 hrs; average relative cell viability (vs 1% DMSO) of non-amplified cells (OVSAHO, CAOV3) minus that of MYC-HSF1 amplified cells (OVCAR8, OVCAR4); positive = greater response in amplified cells; 10 µM

| Compound | Non Amp - AMP (POC) 10 uM |
| --- | --- |
| N#C/C(=C\c1ccc(-c2cc(Cl)ccc2Cl)o1)C(=O)Nc1cccc2ncccc12 [AGK 2] | 24.17 POC |
| CCCc1cc2c(N3CCN(C4=NCC(C)(C)S4)CC3)ncnc2s1 [MI-2] | 8.542 POC |
| Cc1cc(C)cc(C(=O)NOCCCCCC(=O)NO)c1 [LMK 235] | 44.96 POC and 34.77 POC |
| COc1ccc2c(c[n+](C)c3c4cc5c(cc4ccc23)OCO5)c1OC [Chelerythrine Chloride] | −21.5 POC |
| COc1cc2c(NC3CCN(C)CC3)nc(N3CCCN(C)CC3)nc2cc1OCCCN(C)C [UNC0224] | 7.132 POC |
| O=C(Nc1ccc2c(O)cc(S(=O)(=O)O)cc2c1)Nc1ccc2c(O)cc(S(=O)(=O)O)cc2c1 [AMI-1] | 19.64 POC and 18.34 POC |
| CC(/C=C/C(=O)NO)=C\[C@@H](C)C(=O)c1ccc(N(C)C)cc1 [Trichostatin A] | 47.34 POC |
| O=C(/C=C/c1ccc(CN(CCO)CCc2c[nH]c3ccccc23)cc1)NO [LAQ824, Dacinostat] | 43.86 POC |
| CCOC(=O)Nc1cc(-c2ccc(C)c(NS(C)(=O)=O)c2)nn2c(C)nnc12 [Bromosporine] | 15.35 POC and 21.43 POC |
| Cl.O=C([C@@H](Cc1cccc(C(F)(F)F)c1)NS(=O)(=O)c1cc(F)c2c(c1)CCNC2)N1CCCC1 [PFI-2 (hydrochloride)] | 2.189 POC |
| Nc1ccccc1NC(=O)c1ccc(CNc2nccc(-c3cccnc3)n2)cc1 [Mocetinostat] | 49.31 POC |

Same assay, conditions: 10 uM, 48 hrs; average relative cell viability (vs 1% DMSO) of non-amplified cells (OVSAHO, CAOV3) minus that of MYC-HSF1 amplified cells (OVCAR8, OVCAR4); positive = greater response in amplified cells; listed as AGK2, 10 µM

| Compound | Non Amp - AMP (POC) 10 uM |
| --- | --- |
| N#C/C(=C\c1ccc(-c2cc(Cl)ccc2Cl)o1)C(=O)Nc1cccc2ncccc12 [AGK 2] | 19.96 POC |

Same assay, conditions: 10 uM, 48 hrs; average relative cell viability (vs 1% DMSO) of non-amplified cells (OVSAHO, CAOV3) minus that of MYC-HSF1 amplified cells (OVCAR8, OVCAR4); positive = greater response in amplified cells; listed as LAQ824 (NVP-LAQ824, Dacinostat), 10 µM

| Compound | Non Amp - AMP (POC) 10 uM |
| --- | --- |
| O=C(/C=C/c1ccc(CN(CCO)CCc2c[nH]c3ccccc23)cc1)NO [LAQ824, Dacinostat] | 28.82 POC |

Same assay, conditions: 10 uM, 48 hrs; average relative cell viability (vs 1% DMSO) of non-amplified cells (OVSAHO, CAOV3) minus that of MYC-HSF1 amplified cells (OVCAR8, OVCAR4); positive = greater response in amplified cells; listed as Mocetinostat (MGCD0103, MG0103), 10 µM

| Compound | Non Amp - AMP (POC) 10 uM |
| --- | --- |
| Nc1ccccc1NC(=O)c1ccc(CNc2nccc(-c3cccnc3)n2)cc1 [Mocetinostat] | 36.88 POC |

Same assay, conditions: 10 uM, 48 hrs; average relative cell viability (vs 1% DMSO) of non-amplified cells (OVSAHO, CAOV3) minus that of MYC-HSF1 amplified cells (OVCAR8, OVCAR4); positive = greater response in amplified cells; listed as Trichostatin A (TSA), 10 µM

| Compound | Non Amp - AMP (POC) 10 uM |
| --- | --- |
| CC(/C=C/C(=O)NO)=C\[C@@H](C)C(=O)c1ccc(N(C)C)cc1 [Trichostatin A] | 28.28 POC |

Same assay, conditions: 10 uM, 48 hrs; average relative cell viability (vs 1% DMSO) of non-amplified cells (OVSAHO, CAOV3) minus that of MYC-HSF1 amplified cells (OVCAR8, OVCAR4); positive = greater response in amplified cells; listed as UNC 0224, 10 µM

| Compound | Non Amp - AMP (POC) 10 uM |
| --- | --- |
| COc1cc2c(NC3CCN(C)CC3)nc(N3CCCN(C)CC3)nc2cc1OCCCN(C)C [UNC0224] | −1.296 POC |

Same assay, conditions: listed as PCI-34051, 10 µM

| Compound | Non Amp - AMP (POC) 10 uM |
| --- | --- |
| COc1ccc(Cn2ccc3ccc(C(=O)NO)cc32)cc1 [PCI 34051] | −22.68 POC |

Same assay, conditions: listed as UNC0642, 10 µM

| Compound | Non Amp - AMP (POC) 10 uM |
| --- | --- |
| COc1cc2c(NC3CCN(C(C)C)CC3)nc(N3CCC(F)(F)CC3)nc2cc1OCCCN1CCCC1 [UNC 0642] | −5.587 POC |
